Test results as given in patent US12404295B2, “(Hetero)aryl-methyl-thio-beta-D-galactopyranoside derivatives” (Idorsia Pharmaceuticals Ltd, priority 2019, dated 2025).
Read-outs that look alike come from different tables or passages of the source.

Experiments:
human Gal-3 (hGal-3) = human Gal-3 (hGal-3) (Homo sapiens (Human), UniProt P17931); assay: competitive binding assay: biotinylated hGal-3 binding to microplate-adsorbed asialofetuin (ASF)
How it was run: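 Peroxidase activity developed with ABTS measures the biotinylated hGal-3 remaining on the asialofetuin-coated surface after competition with test compounds. Incubation ran 3 h at 4 °C, followed by 1 h with streptavidin-peroxidase at 80 ng/mL.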

human Gal-1 (hGal-1) = human Gal-1 (hGal-1) (Homo sapiens (Human), UniProt P09382); assay: competitive binding assay: biotinylated hGal-1 binding to microplate-adsorbed asialofetuin (ASF); settings: Table 15; read-out: IC50 (Galectin-1 inhibition)
human Gal-1 (hGal-1), sequence (P09382 whole entry): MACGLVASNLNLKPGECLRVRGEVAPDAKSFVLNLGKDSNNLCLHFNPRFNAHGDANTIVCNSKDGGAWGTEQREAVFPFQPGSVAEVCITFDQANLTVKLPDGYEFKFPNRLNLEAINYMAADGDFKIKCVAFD
How it was run: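 Biotinylated human Gal-1 (300-1000 ng/mL) competes with serially diluted compound for binding to ASF-coated plates, 3 h at 4° C. Bound protein detected with streptavidin-peroxidase and ABTS substrate (spectrophotometric). IC50 given as mean of several measurements.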

[1] = Table 9, 2-OMe-Gal inhibitors, read-out: IC50 (Gal-3 inhibition)
[2] = Table 5, read-out: IC50 (Gal-3 inhibition)
[3] = Table 10, 2-OMe-Gal inhibitors, read-out: IC50 (Gal-3 inhibition)

human Gal-3 (hGal-3), sequence (P17931 whole entry): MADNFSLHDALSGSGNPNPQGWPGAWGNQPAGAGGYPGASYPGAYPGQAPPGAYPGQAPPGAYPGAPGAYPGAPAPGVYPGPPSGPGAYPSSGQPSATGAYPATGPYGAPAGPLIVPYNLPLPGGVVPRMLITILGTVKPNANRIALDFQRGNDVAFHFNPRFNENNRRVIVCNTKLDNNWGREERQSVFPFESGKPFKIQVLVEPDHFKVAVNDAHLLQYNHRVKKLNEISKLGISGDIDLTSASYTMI

Compound | IC50 (human Gal-1 (hGal-1)) | IC50 (human Gal-3 (hGal-3); [2]) | also measured
CO[C@@H]1[C@@H](n2cc(-c3cc(F)c(F)c(F)c3)nn2)[C@@H](O)[C@@H](CO)O[C@H]1S[C@H](c1ncccc1C)C1(O)CCOCC1 [Example 2.41.126R.I., (2R,3R,4S,5R,6S)-2-(Hydroxymethyl)-6-(((R)-(4-hydroxytetrahydro-2H-pyran-4-yl)(3-methylpyridin-2-yl)methyl)thio)-5-methoxy-4-(4-(3,4,5-trifluorophenyl)-1H-1,2,3-triazol-1-yl)tetrahydro-2H-pyran-3-ol] | 800 nM | – | IC50 (human Gal-3 (hGal-3); [1]): 60 nM
Cc1cccnc1[C@H](S[C@@H]1O[C@H](CO)[C@H](O)[C@H](n2cc(-c3cc(F)c(F)c(F)c3)nn2)[C@H]1O)C1(O)CCOCC1 [Example 2.41.126S., (2R,3R,4S,5R,6S)-2-(Hydroxymethyl)-6-(((S)-(4-hydroxytetrahydro-2H-pyran-4-yl)(3-methylpyridin-2-yl)methyl)thio)-4-(4-(3,4,5-trifluorophenyl)-1H-1,2,3-triazol-1-yl)tetrahydro-2H-pyran-3,5-diol] | 70400 nM | – | IC50 (human Gal-3 (hGal-3); Gal-3 inhibition, binding of biotinylated hGal-3 to ASF, mean values, read-out: IC50): 2250 nM
CO[C@@H]1[C@@H](n2cc(-c3cc(F)c(F)c(F)c3)nn2)[C@@H](O)[C@@H](CO)O[C@H]1S[C@H](c1ccccc1C)[C@]1(O)CCOC(C)(C)C1 [Example 2.43.102RS.I., (2R,3R,4S,5R,6S)-6-(((R)-((S)-4-Hydroxy-2,2-dimethyltetrahydro-2H-pyran-4-yl)(o-tolyl)methyl)thio)-2-(hydroxymethyl)-5-methoxy-4-(4-(3,4,5-trifluorophenyl)-1H-1,2,3-triazol-1-yl)tetrahydro-2H-pyran-3-ol] | 1900 nM | – | IC50 (human Gal-3 (hGal-3); [1]): 60 nM
CC(C)c1ccccc1C(S[C@@H]1O[C@H](CO)[C@H](O)[C@H](n2cc(-c3cc(F)c(F)c(F)c3)nn2)[C@H]1O)C1(O)CCC(F)(F)CC1 (stereo partly drawn) [Example 2.44.105., (2S,3R,4S,5R,6R)-2-(((4,4-Difluoro-1-hydroxycyclohexyl)(2-isopropylphenyl)methyl)thio)-6-(hydroxymethyl)-4-(4-(3,4,5-trifluorophenyl)-1H-1,2,3-triazol-1-yl)tetrahydro-2H-pyran-3,5-diol [1,3-di-deoxy-1-((4,4-difluoro-1-hydroxy-cyclohexan-1-yl)-(2-(-isopropyl)phenyl)methyl-thio)-3-[4-(3,4,5-trifluorophenyl)-1H-1,2,3-triazol-1-yl]-β-D-galactopyranoside]] | 80 nM | 140 nM | –
CC(C)c1ccccc1[C@@H](S[C@@H]1O[C@H](CO)[C@H](O)[C@H](n2cc(-c3cc(F)c(F)c(F)c3)nn2)[C@H]1O)C1(O)CCC(F)(F)CC1 [Example 2.44.105R., (2S,3R,4S,5R,6R)-2-(((R)-(4,4-Difluoro-1-hydroxycyclohexyl)(2-isopropylphenyl)methyl)thio)-6-(hydroxymethyl)-4-(4-(3,4,5-trifluorophenyl)-1H-1,2,3-triazol-1-yl)tetrahydro-2H-pyran-3,5-diol [1,3-di-deoxy-1-((4,4-difluoro-1-hydroxy-cyclohexan-1-yl)-(2-(-isopropyl)phenyl)methyl-(R)-thio)-3-[4-(3,4,5-trifluorophenyl)-1H-1,2,3-triazol-1-yl]-β-D-galactopyranoside]] | 40 nM | 60 nM | –
CO[C@@H]1[C@@H](n2cc(-c3cc(F)c(F)c(F)c3)nn2)[C@@H](O)[C@@H](CO)O[C@H]1S[C@H](c1ccccc1C(C)C)C1(O)CCC(F)(F)CC1 [Example 2.44.105R.I., (2R,3R,4S,5R,6S)-6-(((R)-(4,4-Difluoro-1-hydroxycyclohexyl)(2-isopropylphenyl)methyl)thio)-2-(hydroxymethyl)-5-methoxy-4-(4-(3,4,5-trifluorophenyl)-1H-1,2,3-triazol-1-yl)tetrahydro-2H-pyran-3-ol] | 150 nM | – | IC50 (human Gal-3 (hGal-3); [3]): 320 nM
CC(C)c1ccccc1[C@H](S[C@@H]1O[C@H](CO)[C@H](O)[C@H](n2cc(-c3cc(F)c(F)c(F)c3)nn2)[C@H]1O)C1(O)CCC(F)(F)CC1 [Example 2.44.105S., (2S,3R,4S,5R,6R)-2-(((S)-(4,4-Difluoro-1-hydroxycyclohexyl)(2-isopropylphenyl)methyl)thio)-6-(hydroxymethyl)-4-(4-(3,4,5-trifluorophenyl)-1H-1,2,3-triazol-1-yl)tetrahydro-2H-pyran-3,5-diol] | 520 nM | 950 nM | –
CO[C@@H]1[C@@H](n2cc(-c3cc(F)c(F)c(F)c3)nn2)[C@@H](O)[C@@H](CO)O[C@H]1S[C@@H](c1ccccc1C(C)C)C1(O)CCC(F)(F)CC1 [Example 2.44.105S.I., (2R,3R,4S,5R,6S)-6-(((S)-(4,4-Difluoro-1-hydroxycyclohexyl)(2-isopropylphenyl)methyl)thio)-2-(hydroxymethyl)-5-methoxy-4-(4-(3,4,5-trifluorophenyl)-1H-1,2,3-triazol-1-yl)tetrahydro-2H-pyran-3-ol] | 53300 nM | – | IC50 (human Gal-3 (hGal-3); [3]): 70500 nM
CO[C@@H]1[C@@H](n2cc(-c3cc(F)c(F)c(F)c3)nn2)[C@@H](O)[C@@H](CO)O[C@H]1S[C@H](c1ccccc1C1CC1)C1(O)CCC(F)(F)CC1 [Example 2.44.106R.I., (2R,3R,4S,5R,6S)-6-(((R)-(2-Cyclopropylphenyl)(4,4-difluoro-1-hydroxycyclohexyl)methyl)thio)-2-(hydroxymethyl)-5-methoxy-4-(4-(3,4,5-trifluorophenyl)-1H-1,2,3-triazol-1-yl)tetrahydro-2H-pyran-3-ol] | 210 nM | – | IC50 (human Gal-3 (hGal-3); [3]): 180 nM
OC[C@H]1O[C@@H](SC(c2ccccc2C(F)(F)F)C2(O)CCC(F)(F)CC2)[C@H](O)[C@@H](n2cc(-c3cc(F)c(F)c(F)c3)nn2)[C@H]1O (stereo partly drawn) [Example 2.44.112., (2S,3R,4S,5R,6R)-2-(((4,4-Difluoro-1-hydroxycyclohexyl)(2-(trifluoromethyl)phenyl)methyl)thio)-6-(hydroxymethyl)-4-(4-(3,4,5-trifluorophenyl)-1H-1,2,3-triazol-1-yl)tetrahydro-2H-pyran-3,5-diol] | 950 nM | 300 nM | –
OC[C@H]1O[C@@H](S[C@H](c2ccccc2C(F)(F)F)C2(O)CCC(F)(F)CC2)[C@H](O)[C@@H](n2cc(-c3cc(F)c(F)c(F)c3)nn2)[C@H]1O [Example 2.44.112R., (2S,3R,4S,5R,6R)-2-(((R)-(4,4-Difluoro-1-hydroxycyclohexyl)(2-(trifluoromethyl)phenyl)methyl)thio)-6-(hydroxymethyl)-4-(4-(3,4,5-trifluorophenyl)-1H-1,2,3-triazol-1-yl)tetrahydro-2H-pyran-3,5-diol] | 770 nM | 80 nM | –
CO[C@@H]1[C@@H](n2cc(-c3cc(F)c(F)c(F)c3)nn2)[C@@H](O)[C@@H](CO)O[C@H]1SC(c1nc(C)c(C)nc1C)C1(O)CCC(F)(F)CC1 (stereo partly drawn) [Example 2.44.119.I., (2R,3R,4S,5R,6S)-6-(((4,4-Difluoro-1-hydroxycyclohexyl)(3,5,6-trimethylpyrazin-2-yl)methyl)thio)-2-(hydroxymethyl)-5-methoxy-4-(4-(3,4,5-trifluorophenyl)-1H-1,2,3-triazol-1-yl)tetrahydro-2H-pyran-3-ol] | 1300 nM | – | IC50 (human Gal-3 (hGal-3); Table 11, read-out: IC50 (Gal-3 inhibition)): 260 nM
